Experiment: Metabolic transformation of TAC and MAC in vivo (MALDI-MS of mouse urine)
Parameters: species or system mice
Details: for metabolic degradation in vivo: mice given TAC/MAC liposomes
Description: One of the components of in vivo biodistribution study of TAC/MAC liposomes in mice was identification of any metabolic transformation of either TAC or MAC in the body. Metabolic degradation of TAC was not observed in vivo. […] Three main metabolites of MAC were identified in mouse urine by matrix-assisted laser desorption […] mass spectrometry (MALDI-MS) analysis and are illustrated in FIG. 4.

main metabolites identified in mouse urine (MALDI-MS) | metabolic degradation in vivo | Substance
Three | expelled without change | K[nido-7-CH3(CH2)15-7,8-C2B9H11] [MAC]
 | not observed | Na3[1-(2′-B10H9)-2-NH3B10H8] [TAC]

From US20170007700A1, “COMPOSITIONS AND METHODS FOR BORON NEUTRON CAPTURE THERAPY” (THE CURATORS OF THE UNIVERSITY OF MISSOURI, priority 2014, published 2017)
